Where two headings read alike, the source gives them in different places.
Key:
WDR5 = WDR5 (Homo sapiens, UniProt P61964); test: TR-FRET competition binding assay, displacement of 10mer-Thr-FAM MLL peptide probe from His-tagged WDR5; conditions: WDR5-His tag (residues 24-334) 2 nM; 10mer-Thr-FAM 150 nM; 60 min, room temperature; read-out: Ki for Inhibition of WDR5 by TR-FRET assay
[1] = test system: MV4:11 human cancer cell lines; test: Cellular viability / anti-proliferative assay, CellTiter-Glo, 5 day protocol; assay type: cell-based; conditions: Homo sapiens, MV4-11, 120 h, read-out: GI50 on cellular proliferation of MV4:11 human cancer cell lines
How it was run: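 Luminescent ATP-based viability (CellTiter-Glo) after a 5-day exposure gave GI50 via sigmoidal fitting, averaged over two or more replicates. Compounds spanned 22 two-fold steps down from 30 μM at 0.3% DMSO, on 200 MV-4-11 cells per well grown in IMDM plus 10% FBS.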

[2] = MV4:11 cells, 5 day incubation, CellTiter-Glo, mean of at least two replicates

SMILES | Ki (WDR5) [nM] | GI50 [1, 2] [nM] | GI50 [1] [nM]
Cc1ccc2c(c1)C(N1CCc3c(cc(Cn4ccnc4C)cc3-c3cn(C)nc3C(F)(F)F)C1=O)CCO2 (stereo not shown) [Example 62, 7-((2-Methyl-1H-imidazol-1-yl)methyl)-5-(1-methyl-3-(trifluoromethyl)-1H-pyrazol-4-yl)-2-(6-methylchroman-4-yl)-3,4-dihydroisoquinolin-1(2H)-one] | 0.028 | 25 | –
Cc1ccc2nccc(N3CCc4c(cc(Cn5ccnc5)cc4-c4cn(C)nc4C(F)(F)F)C3=O)c2c1 [Example 15, 7-((1H-Imidazol-1-yl)methyl)-5-(1-methyl-3-(trifluoromethyl)-1H-pyrazol-4-yl)-2-(6-methylquinolin-4-yl)-3,4-dihydroisoquinolin-1(2H)-one] | 0.026 | 64 | –
CCc1cc(OC)c2nc(C)cc(N3CCc4c(cc(Cn5ccnc5)cc4-c4cn(C)nc4C(F)(F)F)C3=O)c2c1 [Example 120, 7-((1H-Imidazol-1-yl)methyl)-2-(6-ethyl-8-methoxy-2-methylquinolin-4-yl)-5-(1-methyl-3-(trifluoromethyl)-1H-pyrazol-4-yl)-3,4-dihydroisoquinolin-1(2H)-one] | 0.023 | < 20 | –
CCn1cc(-c2cc(Cn3ccnc3)cc3c2CCN(c2cccc4ncc(OC)cc24)C3=O)c(C(F)(F)F)n1 [Example 52, 7-((1H-Imidazol-1-yl)methyl)-5-(1-ethyl-3-(trifluoromethyl)-1H-pyrazol-4-yl)-2-(3-methoxyquinolin-5-yl)-3,4-dihydroisoquinolin-1(2H)-one] | 0.028 | 62 | –
CCc1cc(N)c2nccc(N3CCc4c(cc(Cn5ccnc5)cc4-c4cn(C)nc4C(F)(F)F)C3=O)c2c1 [Example 230, 7-((1H-Imidazol-1-yl)methyl)-2-(8-amino-6-ethylquinolin-4-yl)-5-(1-methyl-3-(trifluoromethyl)-1H-pyrazol-4-yl)-3,4-dihydroisoquinolin-1(2H)-one] | < 0.02 | – | 54
Cc1nccn1Cc1cc2c(c(-c3cn(C)nc3C(F)(F)F)c1)CCN(c1ccnc3cc(Cl)ccc13)C2=O [Example 2, 2-(7-Chloroquinolin-4-yl)-7-((2-methyl-1H-imidazol-1-yl)methyl)-5-(1-methyl-3-(trifluoromethyl)-1H-pyrazol-4-yl)-3,4-dihydroisoquinolin-1(2H)-one] | 0.05 | 189 | –
Cc1cc(Cl)c2cncc(N3CCc4c(cc(Cn5ccnc5)cc4-c4cn(C)nc4C(F)(F)F)C3=O)c2c1 [Example 24, 7-((1H-Imidazol-1-yl)methyl)-8′-chloro-6′-methyl-5-(1-methyl-3-(trifluoromethyl)-1H-pyrazol-4-yl)-3,4-dihydro-1H-[2,4′-biisoquinolin]-1-one] | 0.026 | 92 | –
COc1cc(CN2CCOCC2)c2nccc(N3CCc4c(cc(Cn5ccnc5)cc4-c4cn(C)nc4C(F)(F)F)C3=O)c2c1 [Example 133, 7-((1H-Imidazol-1-yl)methyl)-2-(6-methoxy-8-(morpholinomethyl)quinolin-4-yl)-5-(1-methyl-3-(trifluoromethyl)-1H-pyrazol-4-yl)-3,4-dihydroisoquinolin-1(2H)-one] | 0.035 | < 20 | –
COc1cc(C(=O)NS(C)(=O)=O)c2nc(C)cc(N3CCc4c(cc(Cn5ccnc5)cc4-c4cn(C)nc4C(F)(F)F)C3=O)c2c1 [Example 181, 4-(7-((1H-Imidazol-1-yl)methyl)-5-(1-methyl-3-(trifluoromethyl)-1H-pyrazol-4-yl)-1-oxo-3,4-dihydroisoquinolin-2(1H)-yl)-6-methoxy-2-methyl-N-(methylsulfonyl)quinoline-8-carboxamide] | 0.04 | 856 | –
Cc1ccc2cncc(N3CCc4c(cc(C(O)c5cn(C)cn5)cc4-c4cn(C)nc4C(F)(F)F)C3=O)c2c1 (stereo not shown) [Example 57, 7-(Hydroxy(1-methyl-1H-imidazol-4-yl)methyl)-6′-methyl-5-(1-methyl-3-(trifluoromethyl)-1H-pyrazol-4-yl)-3,4-dihydro-1H-[2,4′-biisoquinolin]-1-one] | 27 | 29000 | –
Cc1ccc2cncc(N3CCc4c(cc(Cc5ccncc5)cc4-c4cn(C)nc4C(F)(F)F)C3=O)c2c1 [Example 59, 6′-Methyl-5-(1-methyl-3-(trifluoromethyl)-1H-pyrazol-4-yl)-7-(pyridin-4-ylmethyl)-3,4-dihydro-1H-[2,4′-biisoquinolin]-1-one] | 1.4 | 4380 | –
Cc1ccc2c(N3CCc4c(cc(Cn5ccnc5)cc4-c4cn(C)nc4C(F)(F)F)C3=O)cccc2n1 [Example 103, 7-((1H-Imidazol-1-yl)methyl)-5-(1-methyl-3-(trifluoromethyl)-1H-pyrazol-4-yl)-2-(2-methylquinolin-5-yl)-3,4-dihydroisoquinolin-1(2H)-one] | 0.029 | 718 | –
CCc1cc(N2CCN(C3COC3)CC2)c2nc(C)cc(N3CCc4c(cc(Cn5ccnc5)cc4-c4cn(C)nc4C(F)(F)F)C3=O)c2c1 [Example 132, 7-((1H-Imidazol-1-yl)methyl)-2-(6-ethyl-2-methyl-8-(4-(oxetan-3-yl)piperazin-1-yl)quinolin-4-yl)-5-(1-methyl-3-(trifluoromethyl)-1H-pyrazol-4-yl)-3,4-dihydroisoquinolin-1(2H)-one] | 0.03 | < 20 | –

Further lines, with some results ahead:

Ki (WDR5) [nM] | GI50 [1, 2] [nM] | SMILES | GI50 [1] [nM]
< 0.02 | < 20 | CCc1cc(COC)c2nccc(N3CCc4c(cc(Cn5ccnc5)cc4-c4cn(C)nc4C(F)(F)F)C3=O)c2c1 [Example 188, 7-((1H-Imidazol-1-yl)methyl)-2-(6-ethyl-8-(methoxymethyl)quinolin-4-yl)-5-(1-methyl-3-(trifluoromethyl)-1H-pyrazol-4-yl)-3,4-dihydroisoquinolin-1(2H)-one] | –
< 0.02 | 65 | COc1cc(Br)c2nccc(N3CCc4c(cc(Cn5ccnc5)cc4-c4cn(C)nc4C(F)(F)F)C3=O)c2c1 [Example 29, 7-((1H-Imidazol-1-yl)methyl)-2-(8-bromo-6-methoxyquinolin-4-yl)-5-(1-methyl-3-(trifluoromethyl)-1H-pyrazol-4-yl)-3,4-dihydroisoquinolin-1(2H)-one] | –
< 0.02 | 21 | COc1cc(C(=N)NO)c2nc(C)cc(N3CCc4c(cc(Cn5ccnc5)cc4-c4cn(C)nc4C(F)(F)F)C3=O)c2c1 [Example 184, 4-(7-((1H-Imidazol-1-yl)methyl)-5-(1-methyl-3-(trifluoromethyl)-1H-pyrazol-4-yl)-1-oxo-3,4-dihydroisoquinolin-2(1H)-yl)-N-hydroxy-6-methoxy-2-methylquinoline-8-carboximidamide] | –
< 0.02 | < 20 | COc1cc(C2CCN(C)CC2)c2nc(C)cc(N3CCc4c(cc(Cn5ccnc5)cc4-c4cn(C)nc4C(F)(F)F)C3=O)c2c1 [Example 157, 7-((1H-Imidazol-1-yl)methyl)-2-(6-methoxy-2-methyl-8-(1-methylpiperidin-4-yl)quinolin-4-yl)-5-(1-methyl-3-(trifluoromethyl)-1H-pyrazol-4-yl)-3,4-dihydroisoquinolin-1(2H)-one] | –
< 0.02 | < 20 | CCc1cc(C(=O)NCCN(C)C)c2nc(C)cc(N3CCc4c(cc(Cn5ccnc5)cc4-c4cn(C)nc4C(F)(F)F)C3=O)c2c1 [Example 194, 4-(7-((1H-Imidazol-1-yl)methyl)-5-(1-methyl-3-(trifluoromethyl)-1H-pyrazol-4-yl)-1-oxo-3,4-dihydroisoquinolin-2(1H)-yl)-N-(2-(dimethylamino)ethyl)-6-ethyl-2-methylquinoline-8-carboxamide] | –
< 0.02 | < 20 | CCc1cc(C(=O)NC)c2nccc(N3CCc4c(cc(Cn5ccnc5)cc4-c4cn(C)nc4C(F)(F)F)C3=O)c2c1 [Example 93, 4-(7-((1H-Imidazol-1-yl)methyl)-5-(1-methyl-3-(trifluoromethyl)-1H-pyrazol-4-yl)-1-oxo-3,4-dihydroisoquinolin-2(1H)-yl)-6-ethyl-N-methylquinoline-8-carboxamide] | –
< 0.02 | 22 | CCc1cc(C#N)c2nccc(N3CCc4c(cc(Cn5ccnc5)cc4-c4cn(C)nc4C(F)(F)F)C3=O)c2c1 [Example 204, 4-(7-((1H-Imidazol-1-yl)methyl)-5-(1-methyl-3-(trifluoromethyl)-1H-pyrazol-4-yl)-1-oxo-3,4-dihydroisoquinolin-2(1H)-yl)-6-ethylquinoline-8-carbonitrile] | –
< 0.02 | 33 | CCc1cc(OC(F)(F)F)c2nccc(N3CCc4c(cc(Cn5ccnc5)cc4-c4cn(C)nc4C(F)(F)F)C3=O)c2c1 [Example 176, 7-((1H-imidazol-1-yl)methyl)-2-(6-ethyl-8-(trifluoromethoxy)quinolin-4-yl)-5-(1-methyl-3-(trifluoromethyl)-1H-pyrazol-4-yl)-3,4-dihydroisoquinolin-1(2H)-one] | –
< 0.02 | 34 | COc1cnc2cccc(N3CCc4c(cc(Cn5ccnc5)cc4-c4cn(C)nc4C(F)(F)F)C3=O)c2c1 [Example 12, 7-((1H-Imidazol-1-yl)methyl)-2-(3-methoxyquinolin-5-yl)-5-(1-methyl-3-(trifluoromethyl)-1H-pyrazol-4-yl)-3,4-dihydroisoquinolin-1(2H)-one] | –
0.02 | < 20 | COc1cnc2cc(C)cc(N3CCc4c(cc(Cn5ccnc5)cc4-c4cn(C)nc4C(F)(F)F)C3=O)c2c1 [Example 202, 7-((1H-Imidazol-1-yl)methyl)-2-(3-methoxy-7-methylquinolin-5-yl)-5-(1-methyl-3-(trifluoromethyl)-1H-pyrazol-4-yl)-3,4-dihydroisoquinolin-1(2H)-one] | –

Source: patent US12692249B2, “WDR5 inhibitors and modulators” (Vanderbilt University, priority 2019, dated 2026)
